Toxic doses and inconclusive results are not listed. Rule as the data show it: active = T/C of 150% or more; inactive = T/C below 125%.
System: L1210 leukemia ip in BDF1 mice, survival T/C
Test: NCI In Vivo Anticancer Drug Screen. Data for tumor model L1210 Leukemia (intraperitoneal) in B6D2F1 (BDF1) mice
Details: endpoint: mean survival time, higher = longer survival
Method in brief: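 Each compound was tested against a transplantable tumor grown in mice. The endpoint was survival, with treated animals benchmarked against vehicle controls as a simple ratio.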

[1] = dose: 100.0 mg/kg/injection, schedule: Q01DX009 (ip), vehicle: Klucel (hydroxypropylcellulose) (HPC)
[2] = dose: 100.0 mg/kg/injection, schedule: Q04DX003 (ip), vehicle: Klucel (hydroxypropylcellulose) (HPC)
[3] = dose: 200.0 mg/kg/injection, schedule: Q01DX009 (ip), vehicle: Klucel (hydroxypropylcellulose) (HPC)
[4] = dose: 200.0 mg/kg/injection, schedule: Q04DX003 (ip), vehicle: Klucel (hydroxypropylcellulose) (HPC)
[5] = dose: 400.0 mg/kg/injection, schedule: Q01DX009 (ip), vehicle: Klucel (hydroxypropylcellulose) (HPC)
[6] = dose: 400.0 mg/kg/injection, schedule: Q04DX003 (ip), vehicle: Klucel (hydroxypropylcellulose) (HPC)
[7] = dose: 50.0 mg/kg/injection, schedule: Q01DX001 (ip), vehicle: carboxymethylcellulose (CMC)
[8] = dose: 100.0 mg/kg/injection, schedule: Q01DX001 (ip), vehicle: carboxymethylcellulose (CMC)
[9] = dose: 25.0 mg/kg/injection, schedule: Q04DX003 (ip), vehicle: Klucel (hydroxypropylcellulose) (HPC)
[10] = dose: 50.0 mg/kg/injection, schedule: Q01DX009 (ip), vehicle: Klucel (hydroxypropylcellulose) (HPC)
[11] = dose: 50.0 mg/kg/injection, schedule: Q04DX003 (ip), vehicle: Klucel (hydroxypropylcellulose) (HPC)
[12] = dose: 100.0 mg/kg/injection, schedule: Q04DX003 (ip), vehicle: acetone
[13] = dose: 200.0 mg/kg/injection, schedule: Q04DX003 (ip), vehicle: acetone
[14] = dose: 400.0 mg/kg/injection, schedule: Q04DX003 (ip), vehicle: acetone

Measured: T/C

COC(=O)C1C(C(=O)OC)C2(Cl)C(Cl)=C(Cl)C1(Cl)C2(Br)Br (configuration not stated)
inactive: dose: 100.0 mg/kg/injection, schedule: Q01DX001 (ip), vehicle: Klucel (hydroxypropylcellulose) (HPC) 101 % of control | [1] 104 % of control | [2] 104 % of control | dose: 200.0 mg/kg/injection, schedule: Q01DX001 (ip), vehicle: Klucel (hydroxypropylcellulose) (HPC) 104 % of control | [3] 101 % of control | [4] 100 % of control | dose: 400.0 mg/kg/injection, schedule: Q01DX001 (ip), vehicle: Klucel (hydroxypropylcellulose) (HPC) 97 % of control | [5] 97 % of control | [6] 104 % of control

CCCS(=O)(=O)N(CC)CC
inactive: dose: 100.0 mg/kg/injection, schedule: Q04DX002 (ip), vehicle: saline with Tween-80 97 % of control | dose: 200.0 mg/kg/injection, schedule: Q04DX002 (ip), vehicle: saline with Tween-80 101 % of control | dose: 400.0 mg/kg/injection, schedule: Q04DX002 (ip), vehicle: saline with Tween-80 87 % of control

OCC1(CO)CCCC2(COC3(CCCCC3)OC2)C1
inactive: [2] 98 % of control | [4] 94 % of control | [6] 94 % of control

CN(C)CCCNCC(=O)N1CCN(C(=O)CNCCCN(C)C)CC1
inactive: [7] 106 % of control | [8] 106 % of control

CC1CC(C)(C)N=C(C(C)CC(C)(C)C)O1 (configuration not stated)
inactive: dose: 100.0 mg/kg/injection, schedule: Q04DX003 (ip), vehicle: saline 105 % of control | dose: 200.0 mg/kg/injection, schedule: Q04DX003 (ip), vehicle: saline 94 % of control

NNC(=O)C1CCC1C(=O)NN (configuration not stated)
inactive: dose: 75.0 mg/kg/injection, schedule: Q01DX001 (ip), vehicle: saline 103 % of control | dose: 75.0 mg/kg/injection, schedule: Q04DX003 (ip), vehicle: saline 96 % of control | dose: 150.0 mg/kg/injection, schedule: Q01DX001 (ip), vehicle: saline 99 % of control | dose: 150.0 mg/kg/injection, schedule: Q04DX003 (ip), vehicle: saline 103 % of control | dose: 300.0 mg/kg/injection, schedule: Q01DX001 (ip), vehicle: saline 97 % of control | dose: 300.0 mg/kg/injection, schedule: Q04DX003 (ip), vehicle: saline 103 % of control

CSC1SCCCS1
inactive: dose: 12.5 mg/kg/injection, schedule: Q04DX002 (ip), vehicle: saline with Tween-80 92 % of control | dose: 25.0 mg/kg/injection, schedule: Q04DX002 (ip), vehicle: saline with Tween-80 98 % of control | dose: 50.0 mg/kg/injection, schedule: Q04DX002 (ip), vehicle: saline with Tween-80 88 % of control

COc1ccc(C2=CC(=O)C(c3ccc(OC)cc3)=CC2=O)cc1
inactive: dose: 20.0 mg/kg/injection, schedule: Q01DX009 (ip), vehicle: gum acacia 88 % of control | dose: 20.0 mg/kg/injection, schedule: Q04DX003 (ip), vehicle: gum acacia 86 % of control | dose: 40.0 mg/kg/injection, schedule: Q04DX003 (ip), vehicle: gum acacia 92 % of control | dose: 80.0 mg/kg/injection, schedule: Q01DX009 (ip), vehicle: gum acacia 97 % of control | dose: 80.0 mg/kg/injection, schedule: Q04DX003 (ip), vehicle: gum acacia 91 % of control

CCCCNC(=O)C1C=C2c3cccc4[nH]cc(c34)CC2N(C)C1 (configuration not stated)
inactive: dose: 12.5 mg/kg/injection, schedule: Q01DX009 (ip), vehicle: Klucel (hydroxypropylcellulose) (HPC) 102 % of control | dose: 25.0 mg/kg/injection, schedule: Q01DX009 (ip), vehicle: Klucel (hydroxypropylcellulose) (HPC) 104 % of control | [9] 93 % of control | [10] 118 % of control | [11] 93 % of control | [2] 104 % of control | [4] 95 % of control

N/N=C/c1cc2ccccc2c2ccccc12
inactive: dose: 100.0 mg/kg/injection, schedule: Q04DX002 (ip), vehicle: Klucel (hydroxypropylcellulose) (HPC) 97 % of control | dose: 200.0 mg/kg/injection, schedule: Q04DX002 (ip), vehicle: Klucel (hydroxypropylcellulose) (HPC) 91 % of control | dose: 400.0 mg/kg/injection, schedule: Q04DX002 (ip), vehicle: Klucel (hydroxypropylcellulose) (HPC) 87 % of control

ClC1(Cl)C2CC(C3C4C=CC(C4)C32)C1(Cl)Cl (configuration not stated)
inactive: [7] 88 % of control | dose: 400.0 mg/kg/injection, schedule: Q01DX001 (ip), vehicle: carboxymethylcellulose (CMC) 101 % of control

C#CCOCCC(C(=O)O)C(=O)O
inactive: dose: 100.0 mg/kg/injection, schedule: Q01DX009 (ip), vehicle: acetone 90 % of control | [12] 101 % of control | dose: 200.0 mg/kg/injection, schedule: Q01DX009 (ip), vehicle: acetone 97 % of control | [13] 101 % of control | [14] 92 % of control

CC(C)(C)S(=O)(=O)CCCCS(=O)(=O)C(C)(C)C
inactive: dose: 100.0 mg/kg/injection, schedule: Q01DX001 (ip), vehicle: saline 102 % of control | dose: 100.0 mg/kg/injection, schedule: Q01DX009 (ip), vehicle: saline 104 % of control | [12] 100 % of control | dose: 200.0 mg/kg/injection, schedule: Q01DX001 (ip), vehicle: saline 94 % of control | dose: 200.0 mg/kg/injection, schedule: Q01DX009 (ip), vehicle: saline 96 % of control | [13] 96 % of control | dose: 400.0 mg/kg/injection, schedule: Q01DX001 (ip), vehicle: saline 88 % of control | dose: 400.0 mg/kg/injection, schedule: Q01DX009 (ip), vehicle: saline 105 % of control | [14] 89 % of control

CCOC(=O)c1ccc(C(=O)OCC)c(C#N)n1
inactive: [1] 102 % of control | [2] 100 % of control | [3] 97 % of control | [4] 93 % of control | [6] 95 % of control

COc1ccc(Cl)cc1N1C(=O)C2C(C1=O)C1(Cl)C(Cl)=C(Cl)C2(Cl)C1(Cl)Cl (configuration not stated)
inactive: [10] 91 % of control | [1] 101 % of control | [2] 98 % of control | [4] 98 % of control

CC(=O)OC1C(CF)OC(n2ccc(=O)[nH]c2=O)C1OC(C)=O (configuration not stated)
inactive: dose: 100.0 mg/kg/injection, schedule: Q01DX005 (ip), vehicle: saline 105 % of control | dose: 200.0 mg/kg/injection, schedule: Q01DX005 (ip), vehicle: saline 123 % of control

Cl/C(=C\c1ccccc1)c1ccccc1
inactive: [9] 96 % of control | [11] 95 % of control | [2] 96 % of control | [6] 101 % of control

CC(=O)c1cccc(NC(=O)c2ccc(F)cc2)c1
inactive: dose: 100.0 mg/kg/injection, schedule: Q01DX009 (ip), vehicle: saline with Tween-80 100 % of control | dose: 200.0 mg/kg/injection, schedule: Q01DX009 (ip), vehicle: saline with Tween-80 98 % of control | dose: 400.0 mg/kg/injection, schedule: Q01DX009 (ip), vehicle: saline with Tween-80 88 % of control

O=C1c2ccccc2C(=O)N1CNc1ccccc1S
inactive: [1] 100 % of control | [3] 104 % of control | [5] 109 % of control

O=C(O)c1cc(-c2ccccc2)cc(Br)c1O
inactive: [8] 93 % of control | dose: 200.0 mg/kg/injection, schedule: Q01DX001 (ip), vehicle: carboxymethylcellulose (CMC) 95 % of control
